According to ChEMBL document CHEMBL1201862, “PubChem BioAssay data set” (2004):
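Exposure lasted 48 hours, with cells grown in 96-well plates and compounds tested at five concentrations. GI50 marks 50% less growth.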 Calls of active or inactive are those of the source. Rule as the data show it: active = GI50 up to about 1.1 µM and inactive = higher.

Columns and labels:
Experiment in all cases: growth of human tumour cells (NCI), 48 h
A498 = system: A498
A549 = system: A549
CAKI-1 = system: CAKI-1
HCT-116 = system: HCT-116
HCT-15 = system: HCT-15
HOP-92 = system: HOP-92
HT-29 = system: HT-29
IGROV-1 = system: IGROV-1
MOLT-4 = system: MOLT-4
NCI-H23 = system: NCI-H23
OVCAR-3 = system: OVCAR-3
OVCAR-4 = system: OVCAR-4
OVCAR-8 = system: OVCAR-8
SF-268 = system: SF-268
SF-295 = system: SF-295
SK-OV-3 = system: SK-OV-3
SN12C = system: SN12C
DU-145 = system: DU-145
NCI/ADR-RES = system: NCI/ADR-RES

| Structure (SMILES) | GI50 (A498) | GI50 (A549) | GI50 (CAKI-1) | GI50 (HCT-116) | GI50 (HCT-15) [µM] | GI50 (HOP-92) | GI50 (HT-29) | GI50 (IGROV-1) | GI50 (MOLT-4) | GI50 (NCI-H23) | GI50 (OVCAR-3) | GI50 (OVCAR-4) | GI50 (OVCAR-8) | GI50 (SF-268) | GI50 (SF-295) | GI50 (SK-OV-3) | GI50 (SN12C) | GI50 (DU-145) | GI50 (NCI/ADR-RES) |
| --- | --- | --- | --- | --- | --- | --- | --- | --- | --- | --- | --- | --- | --- | --- | --- | --- | --- | --- | --- |
| CC1(C)OC(=O)C(=Cc2ccc(O)cc2)C(=O)O1 | > 100 µM (inactive) | > 100 µM (inactive) | > 100 µM (inactive) | > 100 µM (inactive) | > 100 | > 100 µM (inactive) | > 100 µM (inactive) | > 100 µM (inactive) | > 100 µM (inactive) | > 100 µM (inactive) | > 100 µM (inactive) | > 100 µM (inactive) | > 100 µM (inactive) | > 100 µM (inactive) | > 100 µM (inactive) | > 100 µM (inactive) | > 100 µM (inactive) |  |  |
| CCCCCN(CCCCC)C(=O)[C@H](CCC(=O)O)NC(=O)c1cc2ccccc2[nH]1 | > 100 µM (inactive) | 88.5 µM (inactive) | 51.9 µM (inactive) | 28.3 µM (inactive) | 54.8 | 32.3 µM (inactive) | 59.6 µM (inactive) | 45.4 µM (inactive) | 24.9 µM (inactive) | 28.2 µM (inactive) | 42.7 µM (inactive) | 61 µM (inactive) | 77.1 µM (inactive) | 33.9 µM (inactive) | 57.8 µM (inactive) | > 100 µM (inactive) | 48.5 µM (inactive) |  |  |
| C1COCCSC2=C(SCCO1)SC(=C1SC3=C(SCCOCCOCCS3)S1)S2 | > 100 µM (inactive) | > 100 µM (inactive) | > 100 µM (inactive) | > 100 µM (inactive) | > 100 | 44.7 µM (inactive) | > 100 µM (inactive) | > 100 µM (inactive) | > 100 µM (inactive) | > 100 µM (inactive) | > 100 µM (inactive) | 48.2 µM (inactive) | 53.5 µM (inactive) | 51.1 µM (inactive) | 50.9 µM (inactive) | 72.1 µM (inactive) | > 100 µM (inactive) |  |  |
| COc1c(-c2cc(C)c(Cl)c(=O)[nH]2)c(O)c(OC)c2occc12 |  | > 100 µM (inactive) | > 100 µM (inactive) | > 100 µM (inactive) | > 100 | 23.1 µM (inactive) | > 100 µM (inactive) | > 100 µM (inactive) | > 100 µM (inactive) | > 100 µM (inactive) | > 100 µM (inactive) | > 100 µM (inactive) | > 100 µM (inactive) | 97.1 µM (inactive) | > 100 µM (inactive) | > 100 µM (inactive) | > 100 µM (inactive) | > 100 µM (inactive) | > 100 µM (inactive) |
| NS(=O)(=O)c1ccc(NC(=S)NC=C2C(=O)c3ccccc3C2=O)cc1 | 71.9 µM (inactive) | > 100 µM (inactive) | 86.5 µM (inactive) | > 100 µM (inactive) | 38.9 | 23.7 µM (inactive) |  | 23.3 µM (inactive) | 61.9 µM (inactive) | > 100 µM (inactive) | 55.8 µM (inactive) | 49 µM (inactive) |  | 36.5 µM (inactive) | > 100 µM (inactive) | > 100 µM (inactive) | > 100 µM (inactive) | 94 µM (inactive) |  |
| Cc1ccc(C)c(N2C(=O)C(=O)C(c3nc4ccccc4s3)/C(=N/NC(=O)NN)C2=O)c1 (stereo not given) | > 100 µM (inactive) | > 100 µM (inactive) | > 100 µM (inactive) | > 100 µM (inactive) | > 100 | > 100 µM (inactive) | > 100 µM (inactive) | > 100 µM (inactive) | > 100 µM (inactive) | > 100 µM (inactive) | > 100 µM (inactive) | > 100 µM (inactive) | > 100 µM (inactive) | > 100 µM (inactive) | > 100 µM (inactive) | > 100 µM (inactive) | > 100 µM (inactive) |  |  |
| COc1cccc(Nc2nc3c([nH]2)c(=O)n(C)c(=O)n3C)c1 |  | > 10 µM (inactive) | > 10 µM (inactive) |  | > 10 | > 10 µM (inactive) | > 10 µM (inactive) | > 10 µM (inactive) | > 10 µM (inactive) | > 10 µM (inactive) |  | > 10 µM (inactive) | > 10 µM (inactive) | > 10 µM (inactive) | > 10 µM (inactive) | > 10 µM (inactive) | > 10 µM (inactive) | > 10 µM (inactive) |  |
| O=C(O)CCC(NC(=O)c1ccc(Nc2nc3cc(C(F)(F)F)ccc3nc2C(=O)O)cc1)C(=O)O (stereo not given) | > 100 µM (inactive) | > 100 µM (inactive) |  | > 100 µM (inactive) | > 100 | > 100 µM (inactive) | > 100 µM (inactive) | > 100 µM (inactive) | > 100 µM (inactive) | > 100 µM (inactive) | > 100 µM (inactive) |  | > 100 µM (inactive) | > 100 µM (inactive) | > 100 µM (inactive) |  |  | > 100 µM (inactive) | > 100 µM (inactive) |
| N#CCC(=O)Nc1ccccc1O | > 100 µM (inactive) | > 100 µM (inactive) | > 100 µM (inactive) | > 100 µM (inactive) | > 100 | > 100 µM (inactive) | > 100 µM (inactive) | > 100 µM (inactive) | > 100 µM (inactive) | > 100 µM (inactive) | > 100 µM (inactive) | > 100 µM (inactive) | > 100 µM (inactive) | > 100 µM (inactive) | > 100 µM (inactive) | > 100 µM (inactive) | > 100 µM (inactive) |  |  |
| CC12C=C[C@]3(CC[C@@H]4[C@@](C)(CO)CCC[C@]4(C)C3CC1)C2 (stereo not given in full) | 22.9 µM (inactive) | 18.2 µM (inactive) | 12.8 µM (inactive) | 17.9 µM (inactive) | 17 | > 47.3 µM (inactive) | 17.8 µM (inactive) | 17.5 µM (inactive) | 23.6 µM (inactive) | 18 µM (inactive) | 18.2 µM (inactive) | 13.6 µM (inactive) | 21.4 µM (inactive) | 17.9 µM (inactive) | 19.5 µM (inactive) | 18.7 µM (inactive) | 18.2 µM (inactive) |  |  |
| O=c1[nH]c(Nc2cccc(C(F)(F)F)c2)nc2[nH]cnc12 |  | > 100 µM (inactive) | > 100 µM (inactive) | 80 µM (inactive) | > 100 | > 100 µM (inactive) | 77.1 µM (inactive) | > 100 µM (inactive) | > 100 µM (inactive) |  | > 100 µM (inactive) | 94.2 µM (inactive) | > 100 µM (inactive) | > 100 µM (inactive) | > 100 µM (inactive) | > 100 µM (inactive) | > 100 µM (inactive) | > 100 µM (inactive) | > 100 µM (inactive) |
| O=C(OC[C@H]1O[C@@H](OC(=O)c2cc(O)c(O)c(O)c2)[C@H](OC(=O)c2cc(O)c(O)c(O)c2)[C@@H](OC(=O)c2cc(O)c(O)c(O)c2)[C@@H]1OC(=O)c1cc(O)c(O)c(O)c1)c1cc(O)c(O)c(O)c1 [PENTAGALLOYL GLUCOSE] | 6.32 µM (inactive) | 3.54 µM (inactive) | 7.67 µM (inactive) | 5.11 µM (inactive) | 5.21 | 5.58 µM (inactive) | 6.92 µM (inactive) | 5.73 µM (inactive) | 3 µM (inactive) | 2.16 µM (inactive) | 3.78 µM (inactive) | 8.91 µM (inactive) | 5.22 µM (inactive) | 4.57 µM (inactive) | 3.92 µM (inactive) | 6.17 µM (inactive) | 11.9 µM (inactive) |  |  |
